Data reported in US11964971B2, “Methods and compositions for modulating splicing” (Skyhawk Therapeutics, Inc., priority 2019, dated 2024).

Tests used:
MDR1 = assay: in vitro; details: dog; for Papp A→B at 120 min, 5 μM: MDCK-MDR1, pH 7.4, MDCK-MDR1: Papp A-B (10^−6, cm/s); for Papp B→A at 120 min, 5 μM: MDCK-MDR1, pH 7.4, MDCK-MDR1: Papp B-A (10^−6, cm/s)
Procedure: (§1) Experimental Procedure: MDR1-MDCK cell monolayers are grown to confluence on collagen-coated, microporous membranes in 12-well assay plates. The permeability assay buffer is Hanks' balanced salt solution containing 10 mM HEPES and 15 mM glucose at a pH of 7.4. The buffer in the receiver chamber also contained 1% bovine serum albumin. The dosing solution concentration is 5 μM of test article in the assay buffer. Cell monolayers are dosed on the apical side (A-to-B) or basolateral side (B-to-A) and incubated at 37° C. with 5% CO2 in a humidified incubator. Samples are taken from the donor and receiver chambers at 120 minutes. Each determination is performed in duplicate. The flux of lucifer yellow is also measured post-experimentally for each monolayer to ensure no damage was inflicted to the cell monolayers during the flux period. All samples are assayed by LC-MS/MS using electrospray ionization.
(§2) Analytical Method: Liquid Chromatography • Column: Waters ACQUITY UPLC BEH Phenyl 30×2.1 mm, 1.7 μm • M.P. Buffer: 25 mM ammonium formate buffer, pH 3.5 • Aqueous Reservoir (A): 90% water, 10% buffer • Organic Reservoir (B): 90% acetonitrile, 10% buffer • Flow Rate: 0.7 mL/minute • Gradient Program:
(§3) • Total Run Time: 1.00 minute • Autosampler: 2 μL injection volume • Wash1: water/methanol/2-propanol:1/1/1; with 0.2% formic acid • Wash2: 0.1% formic acid in water • Brain Penetration • Potential Classification: A-B Papp≥3.0 and Efflux Ratio<3.0: High • A-B Papp≥3.0 and 10>Efflux Ratio≥3.0: Moderate • A-B Papp≥3.0 and Efflux Ratio≥10: Low • A-B Papp<3.0: Low

[1] = system: MDR1-MDCK cell monolayers; details: dog, MDCK-MDR1, 120 min, 5 μM, pH 7.4
Procedure: as §1, §2, §3

SMN protein = SMN protein assay (MSD) in SMA patient fibroblasts (GM03813); format: cell-based, human
Procedure: Compounds are tested on spinal muscular atrophy (SMA) patient fibroblasts (GM03813, Coriell) at doses ranging from 2.5 μM to 0.6 nM. 7000 cells/well are seeded in 96-well plates. Compounds are incubated for 48 hours and the cells were lysed with 100 μL of lysis buffer. 20 μL of lysate is used for SMN protein measurement by Mesoscale Discovery (MSD) assay developed by PharmOptima (Michigan). A standard curve prepared with SMN protein ranging from […] is used in each MSD plate to calculate the absolute SMN protein amount in each sample.

MDR1 (P-gp) = assay: MDCK-MDR1 permeability assay, blood-brain-barrier penetration potential; details: dog, MDCK-MDR1, pH 7.4, MDCK-MDR1 Efflux Ratio
Procedure: as §1, §2, §3

SMILES	Papp A→B at 120 min, 5 μM (MDR1) [×10⁻⁶ cm/s]	Papp B→A at 120 min, 5 μM (MDR1) [×10⁻⁶ cm/s]	MDCK-MDR1: % Recov A-B (%) [1] [%]	MDCK-MDR1: % Recov B-A (%) [1] [%]	EC50 (SMN protein) [nM]	efflux ratio at 120 min, 5 μM (MDR1 (P-gp))
COc1cc(-c2ccc(-c3cnc(N(C4CC4)[C@H]4C[C@@H]5CCC(N5)[C@H]4F)cn3)c(O)c2)ncn1 (single isomer, unassigned) [Compound 56E2]	2.12	4.55	14	48	101 to 500	2
CN(c1cnc(-c2ccc(-c3ccn(CF)c(=O)c3)cc2O)cn1)[C@H]1C[C@@H]2CCC(N2)[C@H]1F (single isomer, unassigned) [Compound 46E2]	2	43	77	80	101 to 500	22
CN(c1cnc(-c2ccc(-c3cc[nH]c(=O)c3)cc2O)cn1)[C@@H]1CC2COC[C@H](N2)[C@@H]1F (single isomer, unassigned) [Compound 82E1]	0.51	39.2	83	87	501 to 10000	77
CNC(=O)c1cc(O)c(-c2cnc(N(C)[C@H]3C[C@@H]4CCC(N4)[C@H]3F)cn2)cc1F (single isomer, unassigned) [Compound 15E2]	2.66	68.8	85	86	501 to 10000	26
CN(c1cnc(-c2ccc(C3=CCOC3)cc2O)cn1)[C@@H]1CC2CC[C@H](N2)[C@@H]1F (single isomer, unassigned) [Compound 84E1]	3.01	7.82	26	59	501 to 10000	3
CN(c1cnc(-c2ccc(-c3cnn(C)c3)cc2O)cn1)[C@@H]1CC2N[C@H](C1)CC2(F)F (single isomer, unassigned) [Compound 10E2]	28.7	23.7	64	67	101 to 500	1
Oc1cc(-c2cn[nH]c2)ccc1-c1cnc(O[C@@H]2C[C@H]3CCC(N3)[C@@H]2F)cn1 (single isomer, unassigned) [Compound 1E2]	7.49	40.1	66	79	501 to 10000	5
COc1cc(-c2ccc(-c3cnc(N(C)[C@H]4C[C@@H]5CCC(N5)[C@H]4F)cn3)c(O)c2)cc(F)n1 (single isomer, unassigned) [Compound 44E2]	3.33	9.1	13	52	101 to 500	3
CN(c1cnc(-c2ccc(-c3cn[nH]c3)cc2O)cn1)[C@@H]1C[C@H]2CCCC(N2)[C@@H]1F (single isomer, unassigned) [Compound 6E1]	4.58	42.3	76	69	501 to 10000	9
CN(C)C(=O)c1cc(O)c(-c2cnc(N(C)[C@@H]3CC4CC[C@H](N4)[C@@H]3F)cn2)cc1F (single isomer, unassigned) [Compound 14E1]	0.75	39.1	79	84	501 to 10000	52
CNC(=O)/C=C/c1cc(O)c(-c2cnc(N(C)[C@@H]3C[C@@]4(C)CC[C@](C)(N4)[C@@H]3F)cn2)cc1F [Compound 61E1, (E)-3-(2-fluoro-4-(5-(((1S,2R,3R,5R)-2-fluoro-1,5-dimethyl-8-azabicyclo[3.2.1]octan-3-yl)(methyl)amino)pyrazin-2-yl)-5-hydroxyphenyl)-N-methylacrylamide]	1.97	57.4	86	95	16 to 50	29
CN(c1cnc(-c2ccc(-c3ccn(CF)c(=O)c3)cc2O)cn1)[C@@H]1CC2CC[C@H](N2)[C@@H]1F (single isomer, unassigned) [Compound 46E1]	1.69	37.9	74	78	501 to 10000	22
